From patent publication US9434687B2, “Detection of synthetic cannabinoids” (priority 2011, dated 2016) come the findings set out here.

What all share (format): binding, sheep
Assay [1] relates to antibodies raised to Immunogens I & II. Kind of assay: Competitive ELISA, selected molecules as potential cross-reactants (Table 3). To be noted: for % CR / IC50: Table 3, standard conc 750.00 ng/ml. As to the method: (a) The wells of an enhanced binding 96 well polystyrene microtiter plate were coated with the Ig fraction of the antiserum raised to Immunogen I (Hapten A-BTG—example 5) and diluted in 10 mM Tris, pH8.5 (125 μl/well). The appropriate antibody coating concentration was determined using standard ELISA checkerboard techniques. The plate was incubated for 2 hours at 37° C., washed 4 times over a 10-minute period with Tris buffered saline containing Tween 20 (TBST) and tapped dry. Standard solutions of JWH synthetic cannabinoids, metabolites and selected molecules were prepared in TBST and 50 μl of each was added to the appropriate wells. 75 μl of conjugate (Hapten A-HRP) diluted in Tris buffer containing EDTA, D-mannitol, sucrose, thimerosal and BSA, was added to each of the wells. The appropriate dilution of conjugate was also determined using standard ELISA checkerboard techniques. The plate was incubated at 25° C. for 1 hour. The excess unbound conjugate was removed by washing 6 times over a 10-minute period with TBST and tapped dry. 125 μl of tetramethylbenzedine (TMB) substrate solution was added to each well of the plate that was then incubated for 15-20 minutes in the dark at room temperature. The reaction was terminated by addition of 125 μl of 0.2M sulphuric acid to each well. The absorbance was then measured at 450 nm using a microtiter plate reader.
Employing each series of standards, calibration curves were generated and these were used to determine the specificity of the immunoassay for the JWH synthetic cannabinoids, metabolites and selected molecules. The results of this study are presented in Tables 1 to 3, cross-reactivity being calculated according to the following formula: % CR=IC50,JWH-018/IC50,CR×100
Where % CR is the percentage cross-reactivity, IC50, JWH-018 is the concentration of JWH-018 that causes 50% displacement of signal and IC50, CR is the concentration of JWH synthetic cannabinoid/metabolite/selected molecule that causes 50% displacement of signal.
The antibody produced from Immunogen I is able to bind to JWH molecules known to be incorporated in herbal therapeutics such as JWH-018, proposed metabolites such as M2 (Wintermeyer et al 2010), and potential metabolites such as M5. The detection and quantification of other JWH SSCs is also provided for, the antibodies of the invention bind a range of molecules comprising the 3-(1-naphthoyl)-1H-indole structure (e.g. JWH-071, JWH-398, M1 etc.). […] The concept of using the antibodies of the invention to detect and determine future stealth synthetic cannabinoids is highlighted in Table 4; the 5-fluoropentyl derivative known to bind the CB 1 receptor, but which as of yet has not been detected in herbal therapeutics or similar substances, binds to antibodies raised from Immunogens I and II.
(An ELISA detects its analyte on a solid surface through an enzyme-linked reagent.)

In assay [2] the test system is IgG fraction of antiserum raised to Immunogen I. To be noted: Antibody to Immunogen I; cross-reactants at 100 ng/ml; 1000 ng/ml; standard JWH-018. In outline: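 Plates were coated with the IgG fraction of sheep antiserum raised to Immunogen I and incubated with standards (JWH-018, 0-40 ng/ml) plus hapten-HRP conjugate for 1 h at 25° C. Detection used TMB, read at 450 nm. IC50 was taken from a 4-parameter fit as the concentration giving half the zero-standard OD.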

For assay [3], the system named is IgG fraction of antiserum raised to Immunogen IV. The following applies: Antibody to Immunogen IV; cross-reactants at 100 ng/ml; 1000 ng/ml; standard JWH-018.
In assay [4] the test system is IgG fraction of antiserum raised to Immunogen VIII. To be noted: Antibody to Immunogen VIII; cross-reactants at 100 ng/ml; 1000 ng/ml; standard JWH-018.
Assay [5] relates to IgG fraction of antiserum raised to Immunogen VII. The following applies: Antibody to Immunogen VII; cross-reactants at 100 ng/ml; 1000 ng/ml; standard JWH-015.
Assay [6] deals with IgG fraction of antiserum raised to Immunogen II. The assay is described as follows: Competitive ELISA, antibody RS1833B12 to Immunogen II, tracer ESC4555 (Example 36). The following applies: Antibody to Immunogen II; cross-reactants at 100 ng/ml; 1000 ng/ml; standard JWH-018. As for the experimental part:
An aqueous solution of each immunogen was formulated with Freund's Complete Adjuvant (FCA) to form an emulsion consisting of 2 mg/ml*immunogen in 50% (v/v) FCA. Three sheep were immunised with this emulsion (1° immunisation), 0.25 ml being intramuscularly injected at each of four sites in the flank of each animal. Subsequent immunizations (boosts) contained 1 mg/ml*immunogen. All boosts were emulsified in 50% (v/v) Freund's Incomplete Adjuvant (FIA) and were administered in the same manner as the 1° immunisation, at monthly intervals. Blood sampling took place 7 to 14 days after each boost. *The general procedure for immunogen administration is outlined above, however, it was necessary to deviate from this protocol in some cases, due to reduced immunogen concentrations (Immunogens II, IV, VII and VIII) and/or amount available (Immunogen VIII). Any deviations from the protocol described are outlined in Table 5 below and highlighted in bold.
The appropriate antibody coating dilution was determined using standard ELISA checkerboard techniques. The plate was incubated overnight at 4° C., washed 4 times over 10 minutes with Tris buffered saline containing Tween 20 (TBST) and tapped dry. […] 75 μl of conjugate (appropriate hapten-HRP) diluted in Tris buffer (pH 7.2) containing EDTA, D-mannitol, sucrose, thimerosal and BSA, was added to each of the wells. The appropriate dilution of conjugate was also determined using standard ELISA checkerboard techniques. The plate was incubated at 25° C. for 1 hour. Excess unbound conjugate was removed by washing 6 times over a 10 minute period with TBST. 125 μl of tetramethylbenzidine (TMB) substrate solution was added to each well of the plate that was then incubated for 20 minutes in the dark at room temperature. The reaction was terminated by addition of 125 μl 0.2M H2SO4 to each well. The absorbance was then measured at 450 nm using a microtiter plate reader. The data are inputted to a computer program called ‘KC Junior’. It is a 4 parameter fit curve and allow the calculation of concentrations between the standard runs.
In a similar manner to that described above, the wells of a 96-well microtiter plate were coated with the IgG fraction of the antiserum raised to Immunogens I or II.
The data set out in Tables 7-10 are generated using antibodies raised against the indicated Immunogens in a competitive binding assay with the indicated tracers, using the indicated standards
Using the calibration curves generated and employing a single level of cross reactants, these were used to determine the cross-reactivity of each immunoassay with these substances. These are the standards used for the IC50 and cross-reactivity data generation: […]

Molecules are shown by their SMILES.

With `CCCCCn1cc(C(=O)O)c2ccccc21` [3-Carboxy-N-pentyl-1H-indole, 3-carboxy-1-pentyl-1H-indole], in assay [1], the “% CR” value is reported as less than 0.28% and the 50% inhibitory concentration (IC50) (usually the midpoint of a concentration-inhibition curve) was more than 0.75 µg/mL.

Regarding `COc1cccc2[nH]cc(CCN(C)C)c12` [4-Methoxypsilocin], in assay [1], the “% CR” value is on record as less than 0.28% and the IC50 was more than 0.75 µg/mL.

In the case of `O=C(O)Cc1c[nH]c2ccc(O)cc12` [5-hydroxyindole-3-acetic acid], the “% CR” value in assay [1] is less than 0.28%. The IC50 in assay [1] was more than 0.75 µg/mL. Moreover, the “% B/B0” value stood at 98.71% in assay [2], 96.61% in assay [3], 108.24% in assay [4] and 99.46% in assay [5].

On to `OCCc1c[nH]c2ccc(O)cc12` [5-hydroxytryptophol], for which the “% CR” value in assay [1] is given as less than 0.28%. For the same molecule, in assay [1], the concentration for half-maximal inhibition (IC50) was more than 0.75 µg/mL. In addition, the “% B/B0” value in assay [2] turned out to be 93.30%; in assay [3] it was 94.51%; in assay [4] it was 102.93%; in assay [5] it was 98.45%.

Regarding `CCCCCc1cc(O)c2c(c1)OC(C)(C)[C@@H]1CCC(CO)=C[C@@H]21` [11-Hydroxy-δ-9-THC], in assay [1], the “% CR” value is on record as less than 0.28% and the IC50 is more than 0.75 µg/mL.

Turning to `CCCCCCC(C)(C)c1ccc([C@H]2CCC[C@@H](O)C2)c(O)c1` [CP-49,497-C7], the “% CR” value in assay [1] was less than 0.28%. Moreover, the concentration for half-maximal inhibition (IC50) in assay [1] is more than 0.75 µg/mL. The “% B/B0” value is 101.20% in assay [2], 96.84% in assay [3], 86.95% in assay [4] and 94.23% in assay [5].

As for `CCCCCc1cc(O)c2c(c1)OC(C)(C)c1ccc(C)cc1-2` [Cannabinol], in assay [1], the “% CR” value was less than 0.28%. The IC50 in assay [1] was more than 0.75 µg/mL. Moreover, the “% B/B0” value in assay [2] turned out to be 86.60%; in assay [3] it was 94.74%; in assay [4] it was 94.03%; in assay [5], 95.43%.

In the case of `CCCCCc1cc(O)c2c(c1)OC(C)(C)[C@@H]1CCC(C)=C[C@@H]21` [Delta 9 THC], the “% CR” value in assay [1] is less than 0.28%. In assay [1], the IC50 is more than 0.75 µg/mL. The “% B/B0” value in assay [2] is recorded as 102.66%; in assay [3], 93.62%; in assay [4] it was 96.10%; in assay [5], 96.76%.

As to `O=C(O)c1c[nH]c2ccccc12` [Indole-3-carboxylic Acid], the “binding / cross-reaction with antibodies raised from Immunogens I and II (in words)” value in assay [1] is reported as “do not cross-react”. In assay [1], the “% CR” value is recorded as less than 0.28%. Also, in assay [1], the IC50 was more than 0.75 µg/mL. For the same molecule, the “% B/B0” value was 101.26% in assay [2], 93.42% in assay [3], 96.28% in assay [4] and 96.90% in assay [5].

In the case of `CCn1cc(C(=O)c2cccc3ccccc23)c2ccccc21` [JWH-071], in assay [1], the “binding / cross-reaction with antibodies raised from Immunogens I and II (in words)” value was “bind”.

For the molecule `O=C(c1cccc2ccccc12)c1cn(CCN2CCOCC2)c2cccc(O)c12` [JWH-200 4-hydroxyindole metabolite], the “% B/B0” value in assay [2] came to 44.97%; in assay [6] it was 78.17%; in assay [3], 87.88%; in assay [4], 91.82%; in assay [5], 91.15%.

On to `O=C(c1cccc2ccccc12)c1cn(CCN2CCOCC2)c2ccc(O)cc12` [JWH-200 5-hydroxyindole metabolite], for which the “% B/B0” value in assay [2] is recorded as 12.61%; in assay [6] it was 64.99%; in assay [3], 97.53%; in assay [4] it was 90.88%; in assay [5] it was 82.42%.

Turning to `O=C(c1cccc2ccccc12)c1cn(CCN2CCOCC2)c2cc(O)ccc12` [JWH-200 6-hydroxyindole metabolite], the “% B/B0” value in assay [2] worked out at 7.27%; in assay [6] it was 61.65%; in assay [3], 94.41%; in assay [4], 83.20%; in assay [5], 65.52%.

`CCCCCn1cc(C(=O)c2cccc3c(Cl)cccc23)c2ccccc21` [JWH-398 5-chloronaphthyl isomer]: the “% B/B0” value amounted to 35.53% in assay [2]; 23.50% in assay [6]; 7.06% in assay [3]; 19.67% in assay [4]; 91.33% in assay [5].

Consider `O=C(c1ccc(Cl)c2ccccc12)c1cn(CCCCCO)c2ccccc12` [JWH-398 N-(5-hydroxypentyl) metabolite], for which the “% B/B0” value was 48.07% in assay [2]; 67.49% in assay [6]; 22.01% in assay [3]; 51.33% in assay [4]; 82.97% in assay [5].

For the molecule `CCCCCn1cc(C(=O)c2ccccc2OC)c2ccccc21` [RCS-4 2-methoxy isomer], the “% B/B0” value in assay [2] is 29.14%; in assay [6], 42.74%; in assay [3] it was 15.28%; in assay [4], 29.32%; in assay [5], 87.27%.

Regarding `NCCc1c[nH]c2ccc(O)cc12` [Serotonin], in assay [1], the “% CR” value is less than 0.28% and the IC50 is more than 0.75 µg/mL.
